Data taken from patent publication US9713591B2, “Composition of matter comprising liposomes embedded in a polymeric matrix and methods of using same” (Yissum Research Development Company of the Hebrew …, priority 2008, dated 2017).
Several values for one entry are separate records, joined by “and”; a condition that tells them apart may be missing. Equal entries are not always repeated.

Columns and labels:
[1] = Free (non liposomal) and total bupivacaine determination by HPLC (% free BUP in the preparation); format: physicochemical; settings: Example 2 samples
Protocol: Bupivacaine determination: free (non liposomal) or total (liposomal plus free) concentration of bupivacaine was measured by HPLC (Grant et al Parm. Res., 2001 18, N3, 336-343; Anesthesiology, 2004, 101, 133-137).
Drug/lipid ratio determination for hydrogel beads: The washed beads were injected through a 25G×⅝″ (0.5 mm×16 mm) syringe needle to have homogenous dispersion and were diluted ×10 with saline: • 50 μl and 100 μl used for PL. determination. • 100 μl centrifuged 10′ 2000 g at 4° C. and the supernatant diluted ×10 with isopropanol (IPA) to determine free bupivacaine. • 100 or 200 μl heated in boiling water, than centrifuged 10′ at 2000 g. The supernatant was diluted ×10 with IPA to determine total bupivacaine by HPLC.
All samples for bupivacaine determination were centrifuged for 2 min. at 5000 g (using Eppendof centrifuge) after dilution in IPA. The upper phase was removed and analyzed by HPLC.
All liposomal formulations were analyzed for free non liposomal BUP and total BUP before the in vivo experiment followed by their concentration to reach the level of 2% (w/w) BUP (for liposome formulations #1, 2, 3, 5, 6, 8) and to 1% (w/w BUP for liposome formulations #4 & 7). BUP was loaded into the liposomes either by active loading (CA or AS gradient) or by passive loading as described in Table 8.
Free Bup (Non Liposomal Bup) Determination: […]

male Swiss-Webster mice = assay: Analgesic efficacy in mouse model: electrical stimulation of abdominal skin, vocalization threshold, analgesia score and duration; format: in vivo; set-up: key to analgesia score 150′ / analgesia score 5′ / analgesia score 30′ / analgesia score 60′ / analgesia score 75′ / analgesia score 90′ / analgesia score 105′ / analgesia score 120′ / analgesia score 135′: If the anesthesia was complete the numeric value given was 1.0; when analgesia was partial (incomplete) it received the numeric value of 10.0 in the Table 1 and in other Tables a score of 0.5; for no anesthesia the numeric score was 0
Excerpt: Analgesic efficacy in male Swiss Webster mouse model: Testing for analgesia was done by electrical stimulation of mice skin as described elsewhere (G. J. Grant et al, Pharmaceutical Research, 18, no 3, 336-343, 2001). Pain as electrical stimulation at the desired intensity was inflicted to the skin of shaved mice abdomen. The current generator (model S48, Grass Instruments (W. Warwick, R.I. USA) was used. Mice (male Swiss-Webster, 26±3 gr (n=7 per group) were used. The mice were shaved the hair overlying the abdomen and tested prior to injection to determine the Individual vocalization threshold of each mice. Than the mice were injected with (0.3-0.4 ml of one of the following: free bupivacaine, or LMVV-BUP or various LMVV entrapped in Ca-alginate or chitosan-oxalate cross linked hydrogels through 30G needle. The analgesia duration was than followed as specified in the experiment itself. All experiments were approved and ratified by the HUJI ethic committee.
Analysis of the in vivo mice analgesia: A numerical score to the spreadsheet was introduced for the evaluation of the analgesic effect of various liposome preparations performance in vivo: For each time period (e.g. 4 hrs, 8 hrs etc) a numeric value to each mouse in the experiment was given. If the anesthesia was complete the numeric value given was 1.0; when analgesia was partial (incomplete) it received the numeric value of 10.0 in the Table 1 and in other Tables a score of 0.5 and for no anesthesia the numeric score was 0. The mean for each subgroup was calculated separately (i.e. 1% 300 μl, 2%[…]).
Testing for analgesia was done by electrical stimulation of the skin directly overlying the abdomen at the site of injection using a current generator (model S48, Grass Instruments) as described in Grant et al 2001. (G. J. Grant et al, pharmaceutical research, vol 18, no 3, 336-343, 2001), and in Methods above.
Mice (male Swiss-Webster 26±3 gr) were tested prior to injection to determine the vocalization threshold than were injected with liposomal BUP or free BUP than followed by determination of analgesia duration (The duration of the main in vivo screening study was 2 days and started after a preliminary study using two different injection volumes of formulation #4 (referred to as the PILOT in Table 9A) was performed. […]
Testing for analgesia was performed by electrical stimulation of mice skin as described elsewhere (G. J. Grant et al, Pharmaceutical Research, 18, no 3, 336-343, 2001). Pain by electrical stimulation at the desired intensity was applied to the skin of shaved mice abdomen. The current generator (model S48, Grass Instruments (W. Warwick, R.I. USA) was used. Mice (male Swiss-Webster, 26±3 gr (n=8 per group) were used. The mice were shaved the hair overlying the abdomen and tested prior to injection to determine the Individual vocalization threshold of each mice. Than the mice were injected through 30G needle with 0.25 ml of one of the following formulation: • 1—Alginate beads containing LMVV-BUP (010609), were stored at 4 c for 2 months in 0.5% bup, PH=5.5 (see B3). The external solution of the beads were removed before injection without washing them. • 2—Alginate beads containing LMVV-BUP (010609), were stored at 4 c for 2 months in 2% bup, PH=5.5 (see B3). The external solution of the beads were removed and the beads washed (2.5 ml saline×5) before injection. • 3—Alginate beads containing LMVV-BUP (010609), were stored at 4 c for 2 months in 1% bup, PH=5.5 (see B3). The external solution of the beads were removed before injection without washing them. • 4—Alginate beads containing LMVV-BUP (010609), were stored at 4 c for 2 months in saline, PH=5.5 (see B3). The external solution of the beads were removed before injection without washing them. • 5—LMVV-BUP (010609) were stored at 4 c for 2 months in saline PH=5.5. • 6—BLANK: Aginate beads containing LMVV without bup, were stored at 4 c for 2 months in saline PH=5.5. […]

Structure (SMILES): CCCCN1CCCCC1C(=O)Nc1c(C)cccc1C (stereo not drawn) [compound 9]
- Free bup concentration(%) after injection through G31 syringe needle ([1]; analyzed after the experiment was finished): 0.25%
- Free bup concentration(%) after injection through G31 syringe needle ([1]; analyzed before starting the experiment): 0.25%
- analgesia duration, comparison of Example 2 formulations (male Swiss-Webster mice; Example 2, mice): shortest analgesia duration
- analgesia score 5′ (male Swiss-Webster mice; Example 2 group 9, per mouse, 0.25% bup 300 ul, 5 min): 1
- analgesia score 30′ (male Swiss-Webster mice; Example 2 group 9, per mouse, 0.25% bup 300 ul, 30 min): 1
- analgesia score 60′ (male Swiss-Webster mice; Example 2 group 9, per mouse, 0.25% bup 300 ul, 60 min): 1
- analgesia score 75′ (male Swiss-Webster mice; Example 2 group 9, per mouse, 0.25% bup 300 ul, 75 min, listed as standard free bupivacaine): 1 (3×) and 0 (2×)
- analgesia score 90′ (male Swiss-Webster mice; Example 2 group 9, per mouse, 0.25% bup 300 ul, 90 min, listed as standard free bupivacaine): 1 (3×) and 0 (2×)
- analgesia score 105′ (male Swiss-Webster mice; Example 2 group 9, per mouse, 0.25% bup 300 ul, 105 min, listed as standard free bupivacaine): 1 and 0 (2×)
- analgesia score 120′ (male Swiss-Webster mice; Example 2 group 9, per mouse, 0.25% bup 300 ul, 120 min, listed as standard free bupivacaine): 0.5 and 0 (2×)
- analgesia score 135′ (male Swiss-Webster mice; Example 2 group 9, per mouse, 0.25% bup 300 ul, 135 min): 0
- analgesia score 150′ (male Swiss-Webster mice; Example 2 group 9, per mouse, 0.25% bup 300 ul, 150 min): 0
